Assay results published in patent US11530223B2, “Spiro-lactam NMDA receptor modulators and uses thereof” (Aptinyx Inc., priority 2016, dated 2022).
Where two headings read alike, the source gives them in different places.

What was measured:
[1] = oral pharmacokinetics (plasma, brain, CSF); assay type: in vivo; conditions: Sprague Dawley rats, per os 10 mg/kg; for AUC(0-t) / bioavailability / Tmax / Cmax: rat, plasma, po; for Tmax: normal saline (first four compounds: 5% NMP, 5% Solutol HS, 90% normal saline), read-out: Tmax; for Cmax: read-out: Cmax
Description: Plasma, brain, and CSF samples were analyzed at various time points over a 24 hour period.

[2] = target: T1, NMDAR2A (Homo sapiens, UniProt Q12879); assay: [3H]MK-801 binding in NMDAR2A expressing HEK cell membranes; assay type: biochemical; parameters: key to B: log EC50: 0=−; ≥1×10^−9 M (e.g., −8)=+; <1×10^−9 M (e.g., −10)=++; conditions: 50 μM glutamate; for Emax: read-out: A: % maximal [3H]MK-801 binding relative to 1 mM glycine; for EC50: read-out: B: log EC50 (converted)
T1 construct: expressed in transfected cells; host or cells: HEK cells (membrane extract)
T1 sequence (Q12879 23-1464, species assumed, other chains not shown): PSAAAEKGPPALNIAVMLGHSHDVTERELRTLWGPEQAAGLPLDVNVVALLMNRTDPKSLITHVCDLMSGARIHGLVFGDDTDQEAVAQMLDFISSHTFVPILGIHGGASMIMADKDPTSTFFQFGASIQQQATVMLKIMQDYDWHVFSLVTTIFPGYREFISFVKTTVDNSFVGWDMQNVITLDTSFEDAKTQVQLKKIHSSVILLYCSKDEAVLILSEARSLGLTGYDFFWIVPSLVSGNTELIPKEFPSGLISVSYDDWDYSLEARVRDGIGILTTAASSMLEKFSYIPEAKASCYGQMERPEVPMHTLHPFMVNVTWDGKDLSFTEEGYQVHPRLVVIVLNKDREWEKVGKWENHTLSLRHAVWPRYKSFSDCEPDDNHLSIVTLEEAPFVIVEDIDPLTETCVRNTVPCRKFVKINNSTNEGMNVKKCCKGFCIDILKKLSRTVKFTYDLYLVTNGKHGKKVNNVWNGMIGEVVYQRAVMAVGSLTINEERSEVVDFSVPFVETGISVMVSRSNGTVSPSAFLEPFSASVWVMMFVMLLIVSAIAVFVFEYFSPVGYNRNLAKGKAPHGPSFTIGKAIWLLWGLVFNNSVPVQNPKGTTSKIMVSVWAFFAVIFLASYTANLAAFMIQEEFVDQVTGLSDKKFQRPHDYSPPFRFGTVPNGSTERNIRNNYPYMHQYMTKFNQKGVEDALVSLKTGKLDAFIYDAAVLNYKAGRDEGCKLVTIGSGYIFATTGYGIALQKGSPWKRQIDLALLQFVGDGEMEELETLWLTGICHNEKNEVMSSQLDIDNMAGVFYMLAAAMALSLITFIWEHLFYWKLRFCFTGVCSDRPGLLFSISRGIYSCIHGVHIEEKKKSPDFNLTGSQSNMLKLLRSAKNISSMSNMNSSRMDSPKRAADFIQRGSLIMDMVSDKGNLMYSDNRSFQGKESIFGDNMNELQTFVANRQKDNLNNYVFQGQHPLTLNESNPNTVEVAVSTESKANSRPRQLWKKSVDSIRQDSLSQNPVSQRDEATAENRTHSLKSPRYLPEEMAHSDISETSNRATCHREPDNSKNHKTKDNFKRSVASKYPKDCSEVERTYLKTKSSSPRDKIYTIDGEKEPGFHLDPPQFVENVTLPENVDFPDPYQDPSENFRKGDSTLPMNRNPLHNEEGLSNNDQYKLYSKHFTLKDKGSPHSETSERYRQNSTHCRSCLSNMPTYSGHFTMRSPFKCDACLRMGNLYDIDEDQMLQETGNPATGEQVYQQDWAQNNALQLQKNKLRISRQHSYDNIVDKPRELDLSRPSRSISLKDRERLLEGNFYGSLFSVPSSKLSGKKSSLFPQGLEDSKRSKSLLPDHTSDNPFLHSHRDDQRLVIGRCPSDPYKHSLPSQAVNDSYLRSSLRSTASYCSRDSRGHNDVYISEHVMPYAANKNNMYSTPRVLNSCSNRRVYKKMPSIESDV
Description: (§1) Assays were conducted as described by Moskal et al., “GLYX-13: a monoclonal antibody-derived peptide that acts as an N-methyl-D-aspartate receptor modulator,” Neuropharmacology, 49, 1077-87, 2005. These studies were designed to determine if the test compounds act to facilitate NMDAR activation in NMDAR2A, NMDAR2B, NMDAR2C or NMDAR2D expressing HEK cell membranes as measured by increases in [^3H]MK-801 binding.
(§2) In the assay, 300 μg of NMDAR expressing HEK cell membrane extract protein was preincubated for 15 minutes at 25° C. in the presence of saturating concentrations of glutamate (50 μM) and varying concentrations of test compound (1×10^−15M−1×10^−7M), or 1 mM glycine. Following the addition of 0.3 μCi of [^3H]MK-801 (22.5 Ci/mmol), reactions were again incubated for 15 minutes at 25° C. (nonequilibrium conditions). Bound and free [^3H]MK-801 were separated via rapid filtration using a Brandel apparatus.
(§3) In analyzing the data, the DPM (disintegrations per minute) of [^3H]MK-801 remaining on the filter were measured for each concentration of test compound or for 1 mM glycine. The DPM values for each concentration of a ligand (N=2) were averaged. The baseline value was determined from the best fit curve of the DPM values modeled using the GraphPad program and the log(agonist) vs. response (three parameters) algorithm was then subtracted from all points in the dataset. The % maximal [^3H]MK-801 binding was then calculated relative to that of 1 mM glycine: all baseline subtracted DPM values were divided by the average value for 1 mM glycine. The EC50 and % maximal activity were then obtained from the best fit curve of the % maximal [^3H]MK-801 binding data modelled using the GraphPad program and the log(agonist) vs. response (three parameters) algorithm.
(§4) The tables below summarize the results for the wild type […] NMDAR2A, NMDAR2B, NMDAR2C, and NMDAR2D, and whether the compound is not an agonist (−), is an agonist (+), or is a strong agonist (++), where column A is based on the % maximal [^3H]MK-801 binding relative to 1 mM glycine (−=0; <100%=+; and >100%=++); and column B is based on log EC50 values (0=−; ≥1×10^−9 M (e.g., −8)=+; and <1×10^−9 M (e.g., −10)=++).

[3] = target: T2, NMDAR2B (Homo sapiens, UniProt Q13224); assay: [3H]MK-801 binding in NMDAR2B expressing HEK cell membranes; assay type: biochemical; parameters: key to B: log EC50: 0=−; ≥1×10^−9 M (e.g., −8)=+; <1×10^−9 M (e.g., −10)=++; conditions: 50 μM glutamate; for Emax: read-out: A: % maximal [3H]MK-801 binding relative to 1 mM glycine; for EC50: read-out: B: log EC50 (converted)
T2 construct: expressed in transfected cells; host or cells: HEK cells (membrane extract)
T2 sequence (Q13224 27-1484, species assumed, other chains not shown): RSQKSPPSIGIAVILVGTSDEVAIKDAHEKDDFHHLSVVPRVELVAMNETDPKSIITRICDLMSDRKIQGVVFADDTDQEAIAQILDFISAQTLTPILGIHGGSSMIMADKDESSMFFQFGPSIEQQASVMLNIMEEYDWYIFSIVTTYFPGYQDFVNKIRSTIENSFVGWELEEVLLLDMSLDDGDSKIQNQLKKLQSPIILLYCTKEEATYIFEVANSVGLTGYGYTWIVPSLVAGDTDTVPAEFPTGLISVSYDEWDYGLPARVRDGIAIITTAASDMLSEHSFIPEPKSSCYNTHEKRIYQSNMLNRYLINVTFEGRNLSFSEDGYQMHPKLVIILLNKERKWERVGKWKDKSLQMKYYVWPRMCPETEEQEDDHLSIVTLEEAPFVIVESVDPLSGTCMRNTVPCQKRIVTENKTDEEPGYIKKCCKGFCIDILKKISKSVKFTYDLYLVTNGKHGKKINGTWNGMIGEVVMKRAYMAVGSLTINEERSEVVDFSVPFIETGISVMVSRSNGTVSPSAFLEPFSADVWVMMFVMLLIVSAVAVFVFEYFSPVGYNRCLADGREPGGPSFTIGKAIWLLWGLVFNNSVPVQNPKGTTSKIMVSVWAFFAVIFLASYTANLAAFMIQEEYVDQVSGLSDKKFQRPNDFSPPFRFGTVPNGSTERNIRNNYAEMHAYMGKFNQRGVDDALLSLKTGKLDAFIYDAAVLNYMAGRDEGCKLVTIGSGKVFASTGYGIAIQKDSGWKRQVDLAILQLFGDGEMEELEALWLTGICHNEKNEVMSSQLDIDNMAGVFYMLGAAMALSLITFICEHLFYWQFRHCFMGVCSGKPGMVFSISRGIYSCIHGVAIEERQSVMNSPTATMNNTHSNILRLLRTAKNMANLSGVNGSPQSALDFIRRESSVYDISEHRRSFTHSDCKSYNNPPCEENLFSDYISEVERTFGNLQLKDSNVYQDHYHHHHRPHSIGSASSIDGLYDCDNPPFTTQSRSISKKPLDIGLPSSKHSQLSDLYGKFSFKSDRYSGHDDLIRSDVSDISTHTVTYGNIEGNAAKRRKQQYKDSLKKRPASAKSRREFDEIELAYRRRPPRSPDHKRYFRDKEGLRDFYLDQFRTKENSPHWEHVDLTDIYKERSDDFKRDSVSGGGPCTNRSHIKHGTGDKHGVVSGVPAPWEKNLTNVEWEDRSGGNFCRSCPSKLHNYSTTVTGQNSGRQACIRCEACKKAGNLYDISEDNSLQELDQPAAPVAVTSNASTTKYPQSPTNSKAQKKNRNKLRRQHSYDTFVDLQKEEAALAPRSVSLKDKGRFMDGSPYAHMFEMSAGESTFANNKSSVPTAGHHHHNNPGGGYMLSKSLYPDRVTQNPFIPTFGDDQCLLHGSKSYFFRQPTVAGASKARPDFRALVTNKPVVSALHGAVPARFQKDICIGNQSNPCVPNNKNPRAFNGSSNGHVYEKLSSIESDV
Description: as §1, §2, §3, §4

[4] = IV pharmacokinetics; assay type: in vivo; conditions: Sprague Dawley, rat, in vivo, iv, 2 mg/kg, Sprague Dawley rats; for C0: normal saline (first four compounds: 5% NMP, 5% Solutol HS, 90% normal saline), read-out: C0; for Vd: read-out: Vss
Description: Sprague Dawley rats were dosed intravenously using a normal saline formulation containing 2 mg/kg of the compounds identified in the below table (except for the first four compounds that were delivered in 5% NMP, 5% Solutol® HS and 90% normal saline formulation). The table below summarizes the results of the IV pharmacokinetics.

[5] = tested on: Sprague Dawley rats; assay: Porsolt forced swim test; assay type: in vivo; conditions: 0.1 mg/kg; for % reduction in float time: relative to vehicle group
Description: A non-clinical in vivo pharmacology study (Porsolt assay) was performed to measure antidepressant-like effects. A negative control (0.5% sodium carboxymethyl cellulose in 0.9% sterile saline vehicle) and a positive control (fluoxetine) are shown for comparison against test compound. The study allowed for the evaluation of the effects of each compound on the Porsolt forced swim test as assessed by the rats' response (reduced floating time) during a 5-minute swimming test.
Male 2-3 month old Sprague Dawley rats were used (Harlan, Indianapolis, Ind.). Rats were housed in Lucite cages with aspen wood chip bedding, maintained on a 12:12 light:dark cycle (lights on at 5 AM), and given ad libitum access to Purina lab chow (USA) and tap water throughout the study.
The Porsolt forced swim test adapted for use in rats was performed as described by Burgdorf et al., (The long-lasting antidepressant effects of rapastinel (GLYX-13) are associated with a metaplasticity process in the medial prefrontal cortex and hippocampus. Neuroscience 308:202-211, 2015). Animals were placed in a 46 cm tall×20 cm in diameter clear glass tube filled to 30 cm with tap water (23±1° C.) for 15 min on the first day (habituation) and 5 min on the subsequent test day. Positive control fluoxetine was dosed 3 times (24 h, 5 h and 1 h) prior to testing. Animals were tested 1 h or 24 h post-dosing with the test compounds or vehicle. Animals received a 15 min habituation session 1 day before the 5 min test. A subset of compounds tested at 1 h post-dosing were retested at 1 wk post-dosing in the same sets of animals. Water was changed after every other animal. Animals were videotaped, and floating time as defined as the minimal amount of effort required to keep the animals head above water was scored offline by a blinded experimenter with high inter-rater reliability (Pearson's r>0.9).
Each compound tested at dose level shown. Significance vs. vehicle group for each experiment is marked. […] A compound marked “No” was not statistically significant from vehicle. Data was averaged for test compound and vehicle groups (N approximately 8 per group) and the percent reduction in floating for group treated with test compound relative to group treated with vehicle is shown.

SMILES | CSF Cmax [1] [ng/mL] | Brain Cmax [1] [ng/mL] | AUC(0-t) ([1]; Sprague Dawley, 10 mg/kg) [ng·h/mL] | bioavailability ([1]; Sprague Dawley, 10 mg/kg) [%] | Cmax ([1]; Sprague Dawley, 10 mg/kg) [ng/mL] | Emax [2] [%] | EC50 [2] [nM] | Emax [3] [%] | EC50 [3] [nM] | AUC(0-t) [4] [ng·h/mL] | clearance [4] [mL/min/kg] | half-life [4] [h] | C0 [4] [ng/mL] | Vd [4] [L/kg] | B: log EC50 [2] | B: log EC50 [3] | A: % maximal [3H]MK-801 binding relative to 1 mM glycine [2] | A: % maximal [3H]MK-801 binding relative to 1 mM glycine [3] | also measured
CC(=O)N1CCC2(CCNC2=O)CC1 [RG-621] | 3654.37 | 1977.29 | 29100 | 93 | 12000 | < 100 | < 1 | > 100 | < 1 | 6230 | 5.33 | 1.71 | 4760 | 0.52 |  |  |  |  | Tmax ([1]; Sprague Dawley, 10 mg/kg): 0.58 h
CC(C)C(=O)N1CCC2(CCNC2=O)CC1 [RG-623] | 4727 | 4317 | 42600 | 81 | 10900 | 0 |  | < 100 | < 1 | 10500 | 3.18 | 3.98 | 4130 | 0.56 | − |  |  |  | Significance vs. vehicle ([5]; 1 h post-dose, floating time in 5 min test): Yes (statistically significant (p<=0.05) from vehicle at dose level shown); % reduction in float time ([5]; 1 h post-dose): 60.0%; Significance vs. vehicle ([5]; 24 h post-dose): Yes (statistically significant (p<=0.05) from vehicle at dose level shown); % reduction in float time ([5]; 24 h post-dose): 52.9%; Tmax [1]: 0.42 h
O=C1NCCC12CCCN2 (centres unmarked) [RX-1, 1,7-diazaspiro[4.4]nonan-6-one] |  |  |  |  |  | 0 |  | 0 |  |  |  |  |  |  | − | − |  |  | 
CC(=O)N1CCCC12CCNC2=O (centres unmarked) [RZ-403] |  |  |  |  |  |  |  |  | < 1 |  |  |  |  |  | − |  | − (−=0) | ++ (>100%=++) | 
CC(=O)N1CCCC12CCNC2=O (centres unmarked) [RZ-404] |  |  |  |  |  |  | < 1 |  |  |  |  |  |  |  |  | − | + (<100%=+) | − (−=0) | 
CC(C)C(=O)N1CCCC12CCNC2=O (centres unmarked) [RZ-406] |  |  |  |  |  |  |  |  | < 1 |  |  |  |  |  | − |  | − (−=0) | + (<100%=+) | 
